How the values were obtained:
Rat Paw Edema = Rat Paw Edema Assay; format: in vivo; conditions: male Sprague-Dawley rats, po 1 hr before carrageenan, paw volume increase 3 hr later
Protocol: Rat Paw Edema Assay-Protocol
Male Sprague-Dawley rats (150-200 g) were fasted overnight and were given po either vehicle (1% methocel or 5% Tween 80) or a test compound. One hr later, a line was drawn using a permanent marker at the level above the ankle in one hind paw to define the area of the paw to be monitored. The paw volume (V0) was measured using a plethysmometer (Ugo-Basile, Italy) based on the principle of water displacement. The animals were then injected subplantarly with […] of 1% carrageenan solution in saline (FMC Corp, Maine) into the paw using an insulin syringe with a 25-gauge needle (i.e. […] carrageenan per paw). Three hr later, the paw volume (V3) was measured and the increases in paw volume (V3 -V0) were calculated. The animals were sacrificed by CO2 aphyxiation and the absence or presence of stomach lesions scored. Data were compared with the vehicle-control values and percent inhibition calculated. Since a maximum of 60-70% inhibition (paw edema) was obtained with standard NSAIDs, ED50 values were used for comparison. All treatment groups were coded to eliminate observer bias.

COX-2 = target: T1, COX-2 (Homo sapiens, UniProt P35354); experiment: Human Whole Blood (HWB) Assay: COX-2 (LPS-induced PGE2 production); format: cell-based; conditions: LPS-induced PGE2, 24 hours at 37° C.
T1 construct: incubation of human whole blood with LPS (lipopolysaccharide), which induces COX-2; from tissue; host or cells: fresh heparinized human whole blood from male and female volunteers, LPS-stimulated for 24 hours
T1 sequence (P35354 18-604): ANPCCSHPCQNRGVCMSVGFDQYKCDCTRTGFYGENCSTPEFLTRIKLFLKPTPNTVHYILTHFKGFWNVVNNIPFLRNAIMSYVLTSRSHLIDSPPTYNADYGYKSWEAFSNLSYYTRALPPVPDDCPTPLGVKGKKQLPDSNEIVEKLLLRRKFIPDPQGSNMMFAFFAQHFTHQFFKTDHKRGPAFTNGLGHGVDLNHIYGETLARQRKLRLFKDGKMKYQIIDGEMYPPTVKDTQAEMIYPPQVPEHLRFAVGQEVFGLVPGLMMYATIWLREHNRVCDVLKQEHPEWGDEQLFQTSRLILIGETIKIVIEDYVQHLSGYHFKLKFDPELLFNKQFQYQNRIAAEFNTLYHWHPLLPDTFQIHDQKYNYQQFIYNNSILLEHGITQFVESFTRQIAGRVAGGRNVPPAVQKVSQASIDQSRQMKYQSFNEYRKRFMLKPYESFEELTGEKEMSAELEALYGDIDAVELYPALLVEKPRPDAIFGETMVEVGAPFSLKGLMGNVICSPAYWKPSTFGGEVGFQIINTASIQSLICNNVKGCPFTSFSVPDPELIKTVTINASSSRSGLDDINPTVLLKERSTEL
Protocol: Human Whole Blood (HWB) Assay Human whole blood provides a protein and cell-rich milieu appropriate for the study of biochemical efficacy of anti-inflammatory compounds such as selective COX-2 inhibitors. […] This is consistent with the observation that COX-2 inhibitors have no effect on PGE2 production in normal blood. These inhibitors are active only after incubation of human whole blood with LPS (lipopolysaccharide), which induces COX-2. This assay can be used to evaluate the inhibitory effect of selective COX-2 inhibitors on PGE2 production. As well, platelets in whole blood contain a large amount of the COX-1 enzyme. Immediately following blood clotting, platelets are activated through a thrombin-mediated mechanism. This reaction results in the production of thromboxane B2 (T×B2) via activation of COX-1. Thus, the effect of test compounds on T×B2 levels levels following blood clotting can be examined and used as an index for COX-1 activity. Therefore, the degree of selectivity by the test compound can be determined by measuring the levels of PGE2 after LPS induction (COX-2) and T×B2 following blood clotting (COX-1) in the same assay. A. COX-2 (LPS-induced PGE2 production) Fresh blood was collected in heparinized tubes by venipuncture from both male and female volunteers. The subjects had no apparent inflammatory conditions and had not taken any NSAIDs for at least 7 days prior to blood collection. Plasma was immediately obtained from a 2 mL blood aliquot to use as blank (basal levels of PGE2). The remaining blood was incubated with LPS ([…] final concentration, Sigma Chem, #L-2630 from E. coli; diluted in 0.1% BSA-Phosphate buffered saline) for […]. […] At the end of the incubation, the blood was centrifuged at 12,000×g for 5 minutes to obtain plasma. A […] aliquot of plasma was mixed with […] of methanol for protein precipitation. The supernatant was obtained and was assayed for PGE2 using a radioimmunoassay kit (Amersham, RPA#530) after conversion of PGE2 to its methyl oximate derivative according to the manufacturer's procedure. Compounds of the present invention are inhibitors of cyclooxygenase-2 and are thereby useful in the treatment of cyclooxygenase-2 mediated diseases as enumerated above. The activities of the compounds against cyclooxygenase may be seen in the representative results shown below. In the assay, inhibition is determined by measuring the amount of prostaglandin E2 (PGE2) synthesized in the presence of arachidonic acid, cyclooxygenase-1 or cyclooxygenase-2 and a putative inhibitor. The IC50 values represent the concentration of putative inhibitor required to return PGE2 synthesis to 50% of that obtained as compared to the uninhibited control.

COX-1 = target: T2, COX-1 (Homo sapiens, UniProt P23219); experiment: Human Whole Blood (HWB) Assay: COX-1 (Clotting-induced TxB2 production); format: cell-based; conditions: clotting-induced TxB2, 1 hour at 37° C.
T2 construct: platelets in whole blood contain a large amount of the COX-1 enzyme; from tissue; host or cells: fresh human whole blood without anticoagulant, allowed to clot (platelets)
Protocol: Human Whole Blood (HWB) Assay
Human whole blood provides a protein and cell-rich milieu appropriate for the study of biochemical efficacy of anti-inflammatory compounds such as selective COX-2 inhibitors. […] This is consistent with the observation that COX-2 inhibitors have no effect on PGE2 production in normal blood. These inhibitors are active only after incubation of human whole blood with LPS (lipopolysaccharide), which induces COX-2. This assay can be used to evaluate the inhibitory effect of selective COX-2 inhibitors on PGE2 production. As well, platelets in whole blood contain a large amount of the COX-1 enzyme. Immediately following blood clotting, platelets are activated through a thrombin-mediated mechanism. This reaction results in the production of thromboxane B2 (T×B2) via activation of COX-1. […] Therefore, the degree of selectivity by the test compound can be determined by measuring the levels of PGE2 after LPS induction (COX-2) and T×B2 following blood clotting (COX-1) in the same assay. […]
Compounds of the present invention are inhibitors of cyclooxygenase-2 and are thereby useful in the treatment of cyclooxygenase-2 mediated diseases as enumerated above. […] In the assay, inhibition is determined by measuring the amount of prostaglandin E2 (PGE2) synthesized in the presence of arachidonic acid, cyclooxygenase-1 or cyclooxygenase-2 and a putative inhibitor. […]

T2 sequence (P23219 24-599): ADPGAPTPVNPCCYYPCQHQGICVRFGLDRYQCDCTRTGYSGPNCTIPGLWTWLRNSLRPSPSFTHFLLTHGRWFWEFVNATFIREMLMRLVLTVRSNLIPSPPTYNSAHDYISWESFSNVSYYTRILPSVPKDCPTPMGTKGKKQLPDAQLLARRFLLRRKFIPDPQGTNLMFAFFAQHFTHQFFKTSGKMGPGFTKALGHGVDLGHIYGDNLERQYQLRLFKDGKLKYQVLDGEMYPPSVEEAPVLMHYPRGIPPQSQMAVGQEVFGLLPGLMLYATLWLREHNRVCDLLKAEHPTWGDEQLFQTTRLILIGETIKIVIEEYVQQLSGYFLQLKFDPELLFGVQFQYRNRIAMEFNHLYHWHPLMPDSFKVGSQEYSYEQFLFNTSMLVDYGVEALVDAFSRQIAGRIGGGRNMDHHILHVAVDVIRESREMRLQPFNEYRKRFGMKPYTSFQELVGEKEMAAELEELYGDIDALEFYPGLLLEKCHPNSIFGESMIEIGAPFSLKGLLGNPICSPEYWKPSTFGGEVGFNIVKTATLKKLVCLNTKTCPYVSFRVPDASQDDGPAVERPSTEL

| SMILES | ED50 (Rat Paw Edema) | IC50 (COX-2) | IC50 (COX-1) |
| --- | --- | --- | --- |
| CC1(O)OC(=O)C(c2ccc(Cl)cc2)=C1c1ccc(S(C)(=O)=O)cc1 (centres unmarked) [Example 6, 3-(4-Chlorophenyl)-5-hydroxy-5-methyl-4-(4-(methylsulfonyl)phenyl)-2-(5H)-furanone] | 1.41 mg/kg | 2420 nM | – |
| COC1(C)OC(=O)C(c2ccc(F)cc2)=C1c1ccc(S(C)(=O)=O)cc1 (centres unmarked) [Example 15, 3-(4-Fluorophenyl)-5-methoxy-5-methyl-4-(4-(methylsulfonyl)phenyl)-2-(5H)-furanone] | 2.8 mg/kg | < 370 nM | > 30000 nM |
| CC1(O)OC(=O)C(c2ccc(F)cc2)=C1c1ccc(S(C)(=O)=O)cc1 (centres unmarked) [Example 5, 3-(4-Fluorophenyl)-5-hydroxy-5-methyl-4-(4-(methylsulfonyl)phenyl)-2-(5H)-furanone] | 1.84 mg/kg | 1410 nM | – |
| CC1(O)OC(=O)C(c2ccccc2)=C1c1ccc(S(C)(=O)=O)cc1 (centres unmarked) [Example 4, 5-Hydroxy-5-methyl-4-(4-(methylsulfonyl)phenyl)-3-phenyl-2-(5H)-furanone] | 1.53 mg/kg | 1270 nM | – |
| COC1(C)OC(=O)C(c2ccccc2)=C1c1ccc(S(C)(=O)=O)cc1 (centres unmarked) [Example 10, 5-Methoxy-5-methyl-4-(4-(methylsulfonyl)phenyl)-3-phenyl-2-(5H)-furanone] | 1.94 mg/kg | < 370 nM | – |

Source: US5691374A, “Diaryl-5-oxygenated-2-(5H) -furanones as COX-2 inhibitors” (Merck Frosst Canada Inc., priority 1995, dated 1997)
